Experimental data: PMC12716008 (Chemistry & Biodiversity, 2025)
In brackets after ≈: the same amount, converted by molar mass. Where two headings read alike, the source gives them in different places. Starred links: 1 amine or outer side, 2 acyl side, 3 side chain; linkers in the order of their positions; H or OH if unused. Positions of bridges follow the written chain, without caps; N, C: chain ends. Non-standard residues stand in square brackets, D forms with d. Residues, ends and D or L forms follow the SMILES beside them. Chains are numbered I, II in the order given. Actinocin(9to1) = Cc1c2oc3c(C)ccc(C(=O)[*:1])c3nc-2c(C(=O)[*:2])c(N)c1=O; NMeV = CN[C@H](C(=O)O)C(C)C; Sar = CNCC(=O)O

Columns and labels:
[1] = tested on: Mycobacterium tuberculosis H37Rv (ATCC 27264); test: Antimycobacterial activity, microtitre Alamar Blue/Presto Blue assay (MIC); type: cell-based; details: 120 h, read-out: M. tb MIC
[2] = tested on: Mycobacterium smegmatis (MC^2 155); test: as above; type: cell-based; details: Mycolicibacterium smegmatis, read-out: M. smeg MIC
[3] = tested on: methicillin‐sensitive S. aureus (MSSA) UAMS‐1; test: Antistaphylococcal activity, broth microdilution (MIC); type: cell-based; details: Staphylococcus aureus, read-out: MSSA MIC
[4] = tested on: methicillin‐resistant S. aureus (MRSA) AH1263 or LAC; test: as above; type: cell-based, Staphylococcus aureus; details: 18 h, read-out: MRSA MIC
[5] = tested on: MSSA UAMS‐1 biofilm formation; test: Staphylococcal biofilm inhibition, crystal violet microtitre test (MBIC); type: cell-based; details: Staphylococcus aureus, 22 h, read-out: MSSA MBIC
[6] = tested on: MRSA AH1263 or LAC biofilm formation; test: as above; type: cell-based; details: Staphylococcus aureus, 22 h, read-out: MRSA MBIC
[7] = tested on: African green monkey kidney (Vero) cell line; test: Cytotoxicity, Presto Blue cell viability; type: cell-based; details: 72 h, read-out: Vero IC50 ± SD
Procedure: (§1) The human monocyte (U937) and African green monkey kidney (Vero) cell lines were used in this study to determine the cytotoxic potential of the quinoline derivatives. The cell lines were purchased from Separation Scientific SA (Pty) Ltd. (Johannesburg, South Africa) and maintained in Roswell Park Memorial Institute (RPMI) 1640 and Eagle's Minimal Essential Medium (EMEM), supplemented with 10% heat‐inactivated foetal bovine serum (FBS), 1% antibiotics (100 U/mL penicillin and 100 µg/mL streptomycin) and 1% antifungal agent (250 µg/mL amphotericin B) as previously described. The cells were cultured at 37°C, 5% CO2 in a humidified incubator to 80% confluency. Detachment was achieved by rinsing the cells with phosphate buffer saline followed by the addition of trypsin–EDTA (0.25% trypsin containing 0.01% EDTA). After 5 min, the reaction was inhibited through the addition of supplemented media.
(§2) Cell viability was assessed through the method described by Lall et al., using Presto Blue as the viability reagent. The cells were seeded in a flat‐bottom 96‐well plate (100 µL) at a concentration of 1.0 × 10^6 cells/mL and allowed to adhere for 24 h. The samples were prepared in DMSO at a stock concentration of 20 mM, serially diluted in complete media and added to the plate at a final concentration range of 0.78–100 µM. Controls included a vehicle control (2% DMSO), an untreated cell control, a 0% control (no cells) and actinomycin D, as the positive control, at a final test concentration range of 3.9 × 10^−4 to 0.05 µg/mL. Cells were incubated for 72 h, followed by the addition of 20 µL of Presto Blue reagent to all the wells and an additional 2 h incubation. Cell viability was measured using a VICTOR Nivo Multimode Microplate Reader (PerkinElmer) at an excitation/emission wavelength of 540/590 nm.
(§3) All results are presented as the mean ± standard deviation (where applicable) of experiments done in triplicate and in two or three independent experiments (as stated in each methods section). Descriptive analysis was used to directly compare and rank the compounds and derivatives based on their activity in the biological assays. Additionally, by comparing the antibiofilm activity to the antibacterial activity and the antibacterial activity to the cytotoxicity, selectivity indices were used to assess the preferential activity of the compounds.

[8] = tested on: human monocyte (U937) cell line; test: Cytotoxicity, Presto Blue cell viability; type: cell-based; details: U-937, 72 h
Procedure: as §1, §2, §3

[9] = tested on: M. smegmatis biofilm formation; test: Mycobacterial biofilm inhibition, microtitre antibiofilm assay (MBIC); type: cell-based, Mycobacterium smegmatis; details: 2–4 days, 37°C, read-out: M. smeg MBIC
hepatoma (Hep3B) = details: cited from earlier work
[10] = M. tuberculosis H37Rv, 5 days, 37°C
[11] = MC^2155, M. smegmatis, 24 h, 37°C
[12] = Chlorocebus sabaeus, Vero, Vero cells
[13] = U937 cells, 72 h, read-out: U937 IC50 ± SD
[14] = Staphylococcus aureus, MRSA, S. aureus AH1263/LAC

SMILES | MIC [1, 10] [µM] | MIC [2, 11] [µM] | minimal effective concentration ([9]; Mycolicibacterium smegmatis) [µM] | IC50 [7, 12] [µM] | IC50 [8, 13] [µM] | MIC ([3]; S. aureus UAMS‐1, 18 h) [µM] | MIC [4, 14] [µM] | minimal effective concentration ([6]; S. aureus AH1263/LAC biofilm) [µM] | also measured
Cc1ccc2cccc(O)c2n1 [HQ‐3, 2‐methyl‐8‐hydroxyquinoline, reference compound] | – | – | – | – | – | – | – | – | MIC [1]: 1 µM (≈ 0.159 µg/mL); MIC ([2]; MC^2155, 24 h): 6.25 µM (≈ 0.995 µg/mL); MIC ([3]; 18 h): 201 µM (≈ 32 µg/mL); MIC ([4]; Staphylococcus aureus, MRSA): 101 µM (≈ 16 µg/mL); minimal effective concentration [5]: 101 µM; minimal effective concentration [6]: 201 µM; IC50 ([7]; Chlorocebus sabaeus, Vero): > 100 µM; IC50 ([8]; read-out: U937 IC50 ± SD, U937 cells, 72 h): > 100 µM
CC(C)=CCOc1cccc2ccc(C)nc12 [QD‐9] | 100 (≈ 22.7 µg/mL) | > 100 | > 100 | > 100 | > 100 | – | – | – | –
CCCCCOc1cccc2cccnc12 [QD‐1] | 100 (≈ 21.5 µg/mL) | > 100 | > 100 | > 100 | > 100 | 595 (≈ 128 µg/mL) | 595 (≈ 128 µg/mL) | 595 | minimal effective concentration ([5]; S. aureus UAMS‐1 biofilm): 595 µM
Cc1ccc2c(Cl)cc(Cl)c(O)c2n1 [HQ‐2, 5,7‐dichloro‐8‐hydroxy‐2‐methylquinoline, reference compound] | 0.1 (≈ 0.0228 µg/mL) | 1.56 (≈ 0.356 µg/mL) | 3.13 | < 100 | – | 2.2 (≈ 0.502 µg/mL) | 1.1 (≈ 0.251 µg/mL) | 35.2 | minimal effective concentration ([5]; S. aureus UAMS‐1 biofilm): 17.6 µM; IC50 ([7]; Vero cells): 82.8 ± 7.09 µM
CC(C)=CCOc1cccc2cccnc12 [QD‐3] | 100 (≈ 21.3 µg/mL) | > 100 | 100 | > 100 | 83.83 ± 0.8 | 300 (≈ 64.1 µg/mL) | 300 (≈ 64.1 µg/mL) | 601 | minimal effective concentration ([5]; S. aureus UAMS‐1 biofilm): 601 µM
Cc1ccc2cccc(OCCC(C)C)c2n1 [QD‐8] | 100 (≈ 22.9 µg/mL) | > 100 | 100 | > 100 | > 100 | 559 (≈ 128 µg/mL) | – | – | –
CC(C)CCOC(=O)c1ccc2cccc(OCCC(C)C)c2n1 [QD‐11, isopentyl 8‐(isopentyloxy)quinoline‐2‐carboxylate] | 100 (≈ 32.9 µg/mL) | > 100 | > 100 | 70.4 ± 3.99 | > 100 | 389 (≈ 128 µg/mL) | 389 (≈ 128 µg/mL) | – | –
CCCCCOc1cccc2ccc(C)nc12 [QD‐7] | 100 (≈ 22.9 µg/mL) | > 100 | > 100 | > 100 | > 100 | 1120 (≈ 256 µg/mL) | 1120 (≈ 256 µg/mL) | – | –
CCCCCOC(=O)c1ccc2cccc(OCCCCC)c2n1 [QD‐10, pentyl 8‐(pentyloxy)quinoline‐2‐carboxylate] | 100 (≈ 32.9 µg/mL) | > 100 | > 100 | 84.8 ± 3.42 | 69.48 ± 0.16 | 389 (≈ 128 µg/mL) | 389 (≈ 128 µg/mL) | – | –
CC(C)=CCOc1c(Cl)cc(Cl)c2ccc(C)nc12 [QD‐6] | 100 (≈ 29.6 µg/mL) | > 100 | > 100 | > 100 | > 100 | – | – | 256 | –
Cc1ccc2c(Cl)cc(Cl)c(OCCC(C)C)c2n1 [QD‐5] | > 100 | > 100 | > 100 | > 100 | > 100 | – | – | – | –
Cc1c2oc3c(C)ccc(C(=O)N[C@@H]4C(=O)N[C@H](C(C)C)C(=O)N5CCC[C@H]5C(=O)N(C)CC(=O)N(C)[C@@H](C(C)C)C(=O)O[C@@H]4C)c3nc-2c(C(=O)N[C@@H]2C(=O)N[C@H](C(C)C)C(=O)N3CCC[C@H]3C(=O)N(C)CC(=O)N(C)[C@@H](C(C)C)C(=O)O[C@@H]2C)c(N)c1=O [Actinomycin D, reference compound] (I: T[dV]P[Sar][NMeV] / II: T[dV]P[Sar][NMeV]; ester I:1-I:C, II:1-II:C; linker I:N-II:N via Actinocin(9to1)) | – | – | – | – | – | – | – | – | IC50 ([7]; Chlorocebus sabaeus, Vero): 0.02 µM; IC50 ([8]; read-out: U937 IC50 ± SD): 0.002 µM
NNC(=O)c1ccncc1 [Isoniazid, reference compound] | 0.3 (≈ 0.0411 µg/mL) | – | – | – | – | – | – | – | –
CN[C@H](CC(C)C)C(=O)N[C@H]1C(=O)N[C@@H](CC(N)=O)C(=O)N[C@H]2C(=O)N[C@H]3C(=O)N[C@H](C(=O)N[C@H](C(=O)O)c4cc(O)cc(O)c4-c4cc3ccc4O)[C@H](O)c3ccc(c(Cl)c3)Oc3cc2cc(c3O[C@@H]2O[C@H](CO)[C@@H](O)[C@H](O)[C@H]2O[C@H]2C[C@](C)(N)[C@H](O)[C@H](C)O2)Oc2ccc(cc2Cl)[C@H]1O [Vancomycin, reference compound] | – | – | – | – | – | – | – | – | MIC ([3]; 18 h): 1 µM (≈ 1.45 µg/mL); MIC ([4]; Staphylococcus aureus, MRSA): 1 µM (≈ 1.45 µg/mL)
Oc1cccc2cccnc12 [HQ‐1, 8‐hydroxyquinoline, reference compound] | – | – | – | – | – | – | – | – | MIC [1]: 1 µM (≈ 0.145 µg/mL); MIC ([2]; MC^2155, 24 h): 3.13 µM (≈ 0.454 µg/mL); MIC ([3]; 18 h): 13.8 µM (≈ 2 µg/mL); MIC ([4]; S. aureus AH1263/LAC): 6.90 µM (≈ 1 µg/mL); MIC ([4]; Staphylococcus aureus, MRSA): 6.9 µM (≈ 1 µg/mL); minimal effective concentration [5]: 13.8 µM; minimal effective concentration [6]: 6.9 µM
O=C(O)c1cn(C2CC2)c2cc(N3CCNCC3)c(F)cc2c1=O [Ciprofloxacin, reference compound] | – | 0.6 (≈ 0.199 µg/mL) | 0.325 | – | – | – | – | 1 | minimal effective concentration ([5]; S. aureus UAMS‐1 biofilm): 2 µM
CC(C)CCOc1cccc2cccnc12 [QD‐2] | > 100 | > 100 | > 100 | > 100 | > 100 | – | 1190 (≈ 256 µg/mL) | 1190 | minimal effective concentration ([5]; S. aureus UAMS‐1 biofilm): 1190 µM
Cc1onc(-c2ccccc2)c1C(=O)N[C@@H]1C(=O)N2[C@@H]1SC(C)(C)[C@@H]2C(=O)O [Oxacillin, reference compound] | – | – | – | – | – | 1 (≈ 0.401 µg/mL) | 64 (≈ 25.7 µg/mL) | – | –
CC(C)=CCOc1cccc2ccc(C=O)nc12 [QD‐12] | 100 (≈ 24.1 µg/mL) | 100 (≈ 24.1 µg/mL) | 12.5 | > 100 | > 100 | 266 (≈ 64.1 µg/mL) | 133 (≈ 32 µg/mL) | 266 | minimal effective concentration ([5]; S. aureus UAMS‐1 biofilm): 531 µM
O=Cc1ccc2cccc(O)c2n1 [HQ‐4, 8‐hydroxyquinoline‐2‐carbaldehyde, reference compound] | – | – | – | – | – | – | – | – | MIC [1]: 1 µM (≈ 0.173 µg/mL); MIC ([2]; MC^2155, 24 h): > 100 µM; minimal effective concentration [9]: >100 µM; MIC ([3]; 18 h): 370 µM (≈ 64.1 µg/mL); MIC ([4]; Staphylococcus aureus, MRSA): 370 µM (≈ 64.1 µg/mL); minimal effective concentration [5]: 740 µM; minimal effective concentration [6]: 740 µM; IC50 ([7]; Chlorocebus sabaeus, Vero): > 100 µM; MTS50 (hepatoma (Hep3B)): 6.25 ± 0.034 µg/mL
CCCCCOc1c(Cl)cc(Cl)c2ccc(C)nc12 [QD‐4] | > 100 | > 100 | > 100 | > 100 | > 100 | – | – | – | –
